From patent US20240148821A1, “PHARMACEUTICAL USE OF CYCLIC PEPTIDE COMPOUND” (CHUGAI SEIYAKU KABUSHIKI KAISHA, priority 2021, published 2024)
Numbered stars: 1 amine (or outer) side, 2 acyl side, 3 side chain; on linkers, the order of the positions; unused ones are H or OH. Bridge positions count the residues as written; N and C are the ends. Square brackets hold non-standard residues; d marks the D form. Peptide text beside a SMILES is read from it. * marks the point of attachment. NMeAbu(3,3-F2-piperidino) = CN[C@@H](CCN1CCCC(F)(F)C1)C(=O)O; hPhe(3-Cl-4-CF3) = N[C@@H](CCc1ccc(C(F)(F)F)c(Cl)c1)C(=O)O; hPhe(3-F,4-CF3) = N[C@@H](CCc1ccc(C(F)(F)F)c(F)c1)C(=O)O; hPhe(4-CF3) = N[C@@H](CCc1ccc(C(F)(F)F)cc1)C(=O)O; NMeAbu(4,4,4-F3) = CN[C@@H](CC(F)(F)F)C(=O)O; NMePhe(4-Cl) = CN[C@@H](Cc1ccc(Cl)cc1)C(=O)O; NMePhe(2-CN) = CN[C@@H](Cc1ccccc1C#N)C(=O)O; NMePhe(4-Me) = CN[C@@H](Cc1ccc(C)cc1)C(=O)O; NMePhe(4-F) = CN[C@@H](Cc1ccc(F)cc1)C(=O)O; NMedβ3hAla = C[C@H](CC(=O)[*:2])N(C)[*:1]; NMeAla(cPent) = CN[C@@H](CC1CCCC1)C(=O)O; NMeGly(cPent) = CN[C@H](C(=O)O)C1CCCC1; NMe4Pal = CN[C@@H](Cc1ccncc1)C(=O)O; NMeGly(cBu) = CN[C@H](C(=O)O)C1CCC1; NMeCha = CN[C@@H](CC1CCCCC1)C(=O)O; NMeChg = CN[C@H](C(=O)O)C1CCCCC1; NMeI = CC[C@H](C)[C@H](NC)C(=O)O; NMeE = CN[C@@H](CCC(=O)O)C(=O)O; NMeD = CN[C@@H](CC(=O)O)C(=O)O; CH2CONHtBu = CC(C)(C)NC(=O)C*; NMeL = CN[C@@H](CC(C)C)C(=O)O; Chg = N[C@H](C(=O)O)C1CCCCC1; NMeV = CN[C@H](C(=O)O)C(C)C; d(β3hA) = C[C@@H](N)CC(=O)O; NMeS = CN[C@@H](CO)C(=O)O; NMeA = CN[C@@H](C)C(=O)O; NMeAib = CNC(C)(C)C(=O)O; Piperidide = C1CCN(*)CC1; Ac5c = NC1(C(=O)O)CCCC1; Aze = O=C(O)[C@@H]1CCN1; Ac4c = NC1(C(=O)O)CCC1; Aib = CC(C)(N)C(=O)O; Isopentyl = CC(C)CC*; Sar = CNCC(=O)O; Propyl = CCC*

system: Human pancreatic cancer cell line AsPC-1 (G12D mutation Kras); experiment: AsPC-1 cell growth inhibition (AsPC-1 CGI); type: cell-based; conditions: read-out: AsPC-1 cell growth inhibition, 50% growth inhibitory concentration (IC50 value); 96 hours, CellTiter-Glo, values classified in ranges
Protocol: Test compounds were serially dilated with dimethyl sulfoxide, and 200 nL was then dispensed to a U-bottom 96-well plate using Labcyte Echo. […] The cell suspension was dispensed to a. plate containing a test compound at 100 μL per well and incubated at 37° C. in a 5% carbon dioxide gas incubator. 96 hours later, 80 μL of CellTiter-Glo (Promega) was added to each well and fluorescence was measured.

| SMILES | IC50 |
| --- | --- |
| CC[C@H](C)[C@@H]1NC(=O)[C@H](CC(C)C)N(C)C(=O)C[C@@H](C(=O)N2CCCCC2)N(C)C(=O)[C@H](C2CCCCC2)N(C)C(=O)C2(CCCC2)NC(=O)[C@@H]2CCCN2C(=O)[C@H](CCc2ccc(C(F)(F)F)c(Cl)c2)NC(=O)CN(C)C(=O)[C@H](CC(F)(F)F)N(C)C(=O)CN(C)C(=O)CN(C)C1=O [Compound 1841] ([NMeL]I[Sar][Sar][NMeAbu(4,4,4-F3)][Sar][hPhe(3-Cl-4-CF3)]P[Ac5c][NMeChg][NMeD]-Piperidide; lactam N-11) | > 500 nM |
| CC[C@H](C)[C@@H]1NC(=O)[C@H](CC(C)C)N(C)C(=O)C[C@@H](C(=O)N2CCCCC2)N(C)C(=O)[C@H](C2CCCCC2)N(C)C(=O)C2(CCCC2)NC(=O)[C@@H]2CCCN2C(=O)[C@H](CCc2ccc(C(F)(F)F)c(Cl)c2)NC(=O)CN(C)C(=O)[C@H](C2CCC2)N(C)C(=O)CN(C)C(=O)CN(C)C1=O [Compound 936] ([NMeL]I[Sar][Sar][NMeGly(cBu)][Sar][hPhe(3-Cl-4-CF3)]P[Ac5c][NMeChg][NMeD]-Piperidide; lactam N-11) | > 500 nM |
| CC[C@H](C)[C@@H]1NC(=O)[C@H](CC(C)C)N(C)C(=O)C[C@@H](C(=O)N2CCCCC2)N(C)C(=O)[C@H](CC(C)C)N(C)C(=O)C2(CCCC2)NC(=O)[C@@H]2CCCN2C(=O)[C@H](CCc2ccc(C(F)(F)F)c(F)c2)NC(=O)CN(C)C(=O)[C@H](Cc2ccc(Cl)cc2)N(C)C(=O)CN(C)C(=O)CN(C)C1=O [Compound 1061] ([NMeL]I[Sar][Sar][NMePhe(4-Cl)][Sar][hPhe(3-F,4-CF3)]P[Ac5c][NMeL][NMeD]-Piperidide; lactam N-11) | > 500 nM |
| CC[C@H](C)[C@@H]1NC(=O)[C@H](CC2CCCC2)N(C)C(=O)C[C@@H](C(=O)N(C)C)N(C)C(=O)[C@H]([C@@H](C)CC)N(C)C(=O)C2(CCCC2)NC(=O)[C@@H]2CCCN2C(=O)[C@H](CCc2ccc(C(F)(F)F)c(Cl)c2)NC(=O)CN(C)C(=O)[C@H](Cc2ccc(C)cc2)N(C)C(=O)[C@@H]2CCN2C(=O)[C@H](C)NC1=O [Compound 1141] ([NMeAla(cPent)]IA[Aze][NMePhe(4-Me)][Sar][hPhe(3-Cl-4-CF3)]P[Ac5c][NMeI][NMeD]-NMe2; lactam N-11) | ≤ 20 nM |
| CCCOC[C@H]1C(=O)N(C)[C@H](C(=O)N2CCCCC2)CC(=O)N(C)[C@@H](CC(C)C)C(=O)N[C@@H]([C@@H](C)CC)C(=O)N(C)[C@@H](C)C(=O)N2CC[C@H]2C(=O)N(C)[C@@H](CC2CCCCC2)C(=O)N(C)CC(=O)N[C@@H](CCc2ccc(C(F)(F)F)c(Cl)c2)C(=O)N2CCC[C@H]2C(=O)NC2(CCCC2)C(=O)N1C [Compound 1855] ([NMeL]I[NMeA][Aze][NMeCha][Sar][hPhe(3-Cl-4-CF3)]P[Ac5c][NMeS](Propyl)[NMeD]-Piperidide; lactam N-11) | > 500 nM |
| CC[C@H](C)[C@@H]1NC(=O)[C@H](CC(C)C)N(C)C(=O)C[C@@H](C(=O)N2CCCCC2)N(C)C(=O)[C@H](C(C)C)N(C)C(=O)C2(CCCC2)NC(=O)[C@@H]2CCCN2C(=O)[C@H](CCc2ccc(C(F)(F)F)c(Cl)c2)NC(=O)CN(C)C(=O)[C@H](CC2CCCCC2)N(C)C(=O)[C@@H]2CCN2C(=O)[C@H](CCC(=O)NC)N(C)C1=O [Compound 180] ([NMeL]I[NMeE](NHMe)[Aze][NMeCha][Sar][hPhe(3-Cl-4-CF3)]P[Ac5c][NMeV][NMeD]-Piperidide; lactam N-11) | > 500 nM |
| CC[C@H](C)[C@@H]1NC(=O)[C@H](CC(C)C)N(C)C(=O)C[C@@H](C)NC(=O)[C@H](C)N(C)C(=O)C2(CCCC2)NC(=O)[C@@H]2CCCN2C(=O)[C@H](CCc2ccc(C(F)(F)F)c(Cl)c2)NC(=O)CN(C)C(=O)[C@H](Cc2ccc(C)cc2)N(C)C(=O)[C@@H]2CCN2C(=O)[C@H](C)N(C)C1=O [Compound 1239] (cyclo([Ac5c][NMeA][d(β3hA)][NMeL]I[NMeA][Aze][NMePhe(4-Me)][Sar][hPhe(3-Cl-4-CF3)]P)) | > 500 nM |
| CC[C@H](C)[C@@H]1NC(=O)[C@H](CC(C)C)N(C)C(=O)C[C@@H](C(=O)N(C)C)N(C)C(=O)[C@H]([C@@H](C)CC)N(C)C(=O)[C@H](C(C)C)NC(=O)[C@H](CCN2CCCC(F)(F)C2)N(C)C(=O)[C@H](CCc2ccc(C(F)(F)F)c(Cl)c2)NC(=O)CN(C)C(=O)[C@H](Cc2ccc(C)cc2)N(C)C(=O)[C@@H]2CCN2C(=O)[C@H](C)N(C)C1=O [Compound 379] ([NMeL]I[NMeA][Aze][NMePhe(4-Me)][Sar][hPhe(3-Cl-4-CF3)][NMeAbu(3,3-F2-piperidino)]V[NMeI][NMeD]-NMe2; lactam N-11) | > 500 nM |
| CC[C@H](C)[C@@H]1NC(=O)[C@H](C)N(C)C(=O)C[C@@H](C)NC(=O)[C@H](C2CCCC2)N(C)C(=O)C2(CCCC2)NC(=O)[C@@H]2CCCN2C(=O)[C@H](CCc2ccc(C(F)(F)F)c(Cl)c2)NC(=O)CN(C)C(=O)[C@H](Cc2ccc(F)cc2)N(C)C(=O)[C@@H]2CCCN2C(=O)CN(C)C1=O [Compound 146] (cyclo([Ac5c][NMeGly(cPent)][d(β3hA)][NMeA]I[Sar]P[NMePhe(4-F)][Sar][hPhe(3-Cl-4-CF3)]P)) | > 500 nM |
| CC[C@H](C)[C@@H]1NC(=O)[C@H](CC(C)C)N(C)C(=O)C[C@@H](C)NC(=O)[C@H](CC(C)C)N(C)C(=O)C(C)(C)NC(=O)[C@H](COCC(=O)NC(C)(C)C)N(C)C(=O)[C@H](CCc2ccc(C(F)(F)F)c(Cl)c2)NC(=O)CN(C)C(=O)[C@H](COCCC(C)C)N(C)C(=O)CN(C)C(=O)CN(C)C1=O [Compound 1467] (cyclo([Aib][NMeL][d(β3hA)][NMeL]I[Sar][Sar][NMeS](Isopentyl)[Sar][hPhe(3-Cl-4-CF3)][NMeS](CH2CONHtBu))) | > 500 nM |
| CC[C@H](C)[C@@H]1NC(=O)[C@H](CC(C)C)N(C)C(=O)C[C@@H](C(=O)N2CCCCC2)N(C)C(=O)[C@H](C2CCCCC2)N(C)C(=O)C2(CCCC2)NC(=O)[C@H](Cc2ccncc2)N(C)C(=O)[C@H](CCc2ccc(C(F)(F)F)c(Cl)c2)NC(=O)CN(C)C(=O)[C@H](CC2CCCCC2)N(C)C(=O)[C@@H]2CCN2C(=O)[C@H](C)N(C)C1=O [Compound 656] ([NMeL]I[NMeA][Aze][NMeCha][Sar][hPhe(3-Cl-4-CF3)][NMe4Pal][Ac5c][NMeChg][NMeD]-Piperidide; lactam N-11) | > 500 nM |
| CC[C@H](C)[C@@H]1NC(=O)[C@H](CC(C)C)N(C)C(=O)C[C@@H](C)NC(=O)[C@H](C(C)C)N(C)C(=O)C2(CCCC2)NC(=O)[C@@H]2CCCN2C(=O)[C@H](CCc2ccc(C(F)(F)F)c(Cl)c2)NC(=O)CN(C)C(=O)[C@H](Cc2ccccc2C#N)N(C)C(=O)CN(C)C(=O)CN(C)C1=O [Compound 767] (cyclo([Ac5c][NMeV][d(β3hA)][NMeL]I[Sar][Sar][NMePhe(2-CN)][Sar][hPhe(3-Cl-4-CF3)]P)) | > 500 nM |
| CC[C@H](C)[C@@H]1NC(=O)[C@H](CC(C)C)N(C)C(=O)C[C@@H](C)NC(=O)[C@H](CC(C)C)N(C)C(=O)C2(CCC2)NC(=O)[C@@H]2CCCN2C(=O)[C@H](CCc2ccc(C(F)(F)F)c(F)c2)NC(=O)CN(C)C(=O)[C@H](CC2CCCCC2)N(C)C(=O)CN(C)C(=O)CN(C)C1=O [Compound 133] (cyclo([Ac4c][NMeL][d(β3hA)][NMeL]I[Sar][Sar][NMeCha][Sar][hPhe(3-F,4-CF3)]P)) | > 500 nM |
| CC[C@H](C)[C@@H]1NC(=O)[C@H](C(C)C)N(C)C(=O)C[C@@H](C)NC(=O)[C@H](CC(C)C)N(C)C(=O)C2(CCCC2)NC(=O)[C@H](CC(C)C)N(C)C(=O)[C@H](CCc2ccc(C(F)(F)F)cc2)NC(=O)CN(C)C(=O)[C@H](Cc2ccc(Cl)cc2)N(C)C(=O)CN(C)C(=O)[C@@H]2CCN2C1=O [Compound 538] (cyclo([Ac5c][NMeL][d(β3hA)][NMeV]I[Aze][Sar][NMePhe(4-Cl)][Sar][hPhe(4-CF3)][NMeL])) | > 500 nM |
| CC[C@H](C)[C@@H]1NC(=O)[C@H](CC(C)C)N(C)C(=O)C[C@@H](C)N(C)C(=O)[C@H](CC(C)C)NC(=O)C(C)(C)N(C)C(=O)[C@H](C2CCCCC2)NC(=O)[C@H](CCc2ccc(C(F)(F)F)c(F)c2)NC(=O)CN(C)C(=O)[C@H](Cc2ccc(Cl)cc2)N(C)C(=O)CN(C)C(=O)CN(C)C1=O [Compound 772] (cyclo([Chg][NMeAib]L[NMedβ3hAla][NMeL]I[Sar][Sar][NMePhe(4-Cl)][Sar][hPhe(3-F,4-CF3)])) | > 500 nM |
| CC[C@H](C)[C@@H]1NC(=O)[C@H](CC(C)C)N(C)C(=O)C[C@@H](C(=O)N(C)C)N(C)C(=O)[C@H](C2CCCC2)N(C)C(=O)C2(CCCC2)NC(=O)[C@H](Cc2ccc(C)cc2)N(C)C(=O)[C@H](CCc2ccc(C(F)(F)F)c(Cl)c2)NC(=O)CN(C)C(=O)[C@H](CC2CCCCC2)N(C)C(=O)[C@@H]2CCN2C(=O)[C@H](C)N(C)C1=O [Compound 908] ([NMeL]I[NMeA][Aze][NMeCha][Sar][hPhe(3-Cl-4-CF3)][NMePhe(4-Me)][Ac5c][NMeGly(cPent)][NMeD]-NMe2; lactam N-11) | > 500 nM |
| CC[C@H](C)[C@@H]1NC(=O)[C@H](C)N(C)C(=O)C[C@@H](C)NC(=O)[C@H](C(C)C)N(C)C(=O)C2(CCCC2)NC(=O)[C@@H]2CCCN2C(=O)[C@H](CCc2ccc(C(F)(F)F)c(Cl)c2)NC(=O)CN(C)C(=O)[C@H](Cc2ccc(F)cc2)N(C)C(=O)[C@@H]2CCCN2C(=O)CN(C)C1=O [Compound 1732] (cyclo([Ac5c][NMeV][d(β3hA)][NMeA]I[Sar]P[NMePhe(4-F)][Sar][hPhe(3-Cl-4-CF3)]P)) | > 500 nM |
| CC[C@H](C)[C@@H]1NC(=O)[C@H](CC(C)C)N(C)C(=O)C[C@@H](C(=O)N(C)C)N(C)C(=O)[C@H](C2CCCC2)N(C)C(=O)[C@H](C)NC(=O)[C@H](C)N(C)C(=O)[C@H](CCc2ccc(C(F)(F)F)c(Cl)c2)NC(=O)CN(C)C(=O)[C@H](CC2CCCCC2)N(C)C(=O)[C@@H]2CCN2C(=O)[C@H](C)N(C)C1=O [Compound 993] ([NMeL]I[NMeA][Aze][NMeCha][Sar][hPhe(3-Cl-4-CF3)][NMeA]A[NMeGly(cPent)][NMeD]-NMe2; lactam N-11) | > 500 nM |
